According to ChEMBL document CHEMBL1201862, “PubChem BioAssay data set” (2004):
Structures can show the parent of a compound that is named as a salt.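 Each compound was tested at five concentrations against cells in 96-well plates for 48 hours. Here, GI50 denotes the concentration required for 50% inhibition of growth.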 The source made the active and inactive calls. No stated cut-off is given here; in the data, active = GI50 up to about 1.1 µM and inactive = higher.

What was measured:
Assay in all cases: growth of human tumour cells (NCI), 48 h
[1] = test system: Malme-3M
[2] = test system: U-251
[3] = test system: M14
[4] = test system: UACC-62
[5] = test system: SK-MEL-5
[6] = test system: OVCAR-5
[7] = test system: SNB-19
[8] = test system: HL-60
[9] = test system: SN12C
[10] = test system: CCRF-CEM
[11] = test system: SF-268
[12] = test system: LOX IMVI
[13] = test system: MOLT-4
[14] = test system: SNB-75
[15] = test system: UO-31
[16] = test system: OVCAR-3
[17] = test system: IGROV-1
[18] = test system: HOP-92
[19] = test system: SW-620
[20] = test system: CAKI-1

Measured: GI50

CNCCC=C1c2ccccc2CCc2ccccc21 [NORTRIPTYLINE HYDROCHLORIDE]
inactive: [1] 15.8 µM | [2] 14.3 µM | [3] 4.25 µM | [4] 14.8 µM | [5] 11.6 µM | [6] 15.3 µM | [7] 16.6 µM | [8] 16.1 µM | [9] 15.4 µM | [10] 12.5 µM | [11] 15.5 µM | [12] 13.2 µM | [13] 12.1 µM | [14] 6.47 µM | [15] 6.14 µM | [16] 11.4 µM | [17] 16.7 µM | [18] 13.7 µM | [19] 17.7 µM | [20] 13.8 µM

O=C(N[C@H]1c2ccsc2/C(=N/O)[C@H]1O)C(F)(F)F
inactive: [1] > 100 µM | [2] > 100 µM | [3] > 100 µM | [4] > 100 µM | [5] > 100 µM | [6] > 100 µM | [7] > 100 µM | [8] > 100 µM | [9] > 100 µM | [10] > 100 µM | [11] > 100 µM | [12] > 100 µM | [13] > 100 µM | [14] > 100 µM | [15] > 100 µM | [16] > 100 µM | [17] > 100 µM | [18] > 100 µM | [19] > 100 µM | [20] > 100 µM

COC1=C(OC)C(=O)c2cc(SC)c(=O)c(SC)cc2C1=O
inactive: [2] 17.9 µM | [3] 17.2 µM | [4] 2.12 µM | [5] 12.4 µM | [7] 22.6 µM | [8] 1.68 µM | [9] 14.7 µM | [10] 2.34 µM | [11] 12.8 µM | [12] 4.48 µM | [13] 3.79 µM | [14] 13.6 µM | [15] 19.8 µM | [16] 8.93 µM | [17] 33.1 µM | [18] 17.7 µM | [19] 33.5 µM | [20] 72.4 µM

C[C@]12CC[C@H]3[C@@H](CC=C4C[C@@H](O)CC[C@@]43C)[C@@H]1C/C(=C\c1ccc([N+](=O)[O-])cc1)[C@@H]2O
inactive: [1] 16 µM | [3] 22.7 µM | [4] 10.6 µM | [5] 6.81 µM | [6] 25.2 µM | [7] 16.9 µM | [8] 2.65 µM | [9] 10.6 µM | [10] 5.14 µM | [11] 26.1 µM | [12] 18.8 µM | [13] 4.18 µM | [14] 17.4 µM | [15] 8.93 µM | [16] 16.3 µM | [17] 26 µM | [18] 21.1 µM | [19] 26.7 µM | [20] 13.8 µM

CSCSCC(CO)NC(=O)/C(C)=C\c1c(C)[nH]c(=O)[nH]c1=O (stereo not drawn)
inactive: [1] > 250 µM | [2] > 250 µM | [4] > 250 µM | [5] > 250 µM | [6] 207 µM | [7] 48.3 µM | [8] > 250 µM | [9] > 250 µM | [10] > 250 µM | [11] > 250 µM | [12] > 250 µM | [13] > 250 µM | [14] > 250 µM | [15] > 250 µM | [16] > 250 µM | [17] > 250 µM | [18] 20.3 µM | [19] 237 µM | [20] 18.3 µM

ClCCCN1CCCCC1CCl (stereo not drawn)
inactive: [1] > 100 µM | [2] > 100 µM | [3] > 100 µM | [4] 43.7 µM | [5] > 100 µM | [6] > 100 µM | [7] > 100 µM | [8] 52.7 µM | [9] > 100 µM | [10] 20.9 µM | [11] 53.2 µM | [12] > 100 µM | [13] 39.4 µM | [14] 68.4 µM | [15] 92.7 µM | [16] > 100 µM | [17] > 100 µM | [18] > 100 µM | [19] > 100 µM | [20] 26.7 µM

CN1CCc2[nH]c3ccccc3c2C1
inactive: [1] > 100 µM | [2] > 100 µM | [4] > 100 µM | [5] > 100 µM | [6] > 100 µM | [7] > 100 µM | [8] 87.9 µM | [9] > 100 µM | [10] > 100 µM | [11] > 100 µM | [12] > 100 µM | [13] > 100 µM | [14] > 100 µM | [15] > 100 µM | [16] > 100 µM | [17] > 100 µM | [18] > 100 µM | [19] > 100 µM | [20] > 100 µM

CCOC(=O)C1=C(c2ccccc2)N(C(C)=O)Cc2ccccc21
inactive: [1] 19.1 µM | [2] 17.2 µM | [3] 18.5 µM | [4] 12.2 µM | [5] 12.6 µM | [6] 21.7 µM | [7] 44.6 µM | [8] 11 µM | [9] 21.9 µM | [10] 16.4 µM | [11] 19 µM | [12] 16 µM | [13] 12 µM | [14] 18.6 µM | [15] 18.1 µM | [16] 18.6 µM | [17] 23.6 µM | [18] 3.1 µM | [19] 34.8 µM

C/C(=C\c1ccccc1)C(=O)CCN1CCOCC1
inactive: [1] 17.5 µM | [2] 18.1 µM | [4] 17.6 µM | [5] 33 µM | [6] 18.9 µM | [7] > 44.9 µM | [8] 33.7 µM | [9] 18.2 µM | [10] 30.6 µM | [11] 32.1 µM | [12] 16.9 µM | [13] 19.1 µM | [14] 23.7 µM | [15] 20.8 µM | [16] 19.3 µM | [17] 27.4 µM | [18] 20.4 µM | [19] 16.5 µM | [20] 18.1 µM
